Source: PMC2477751 (International journal of experimental diabetes research, 2000)
Entries after “also recorded” stand apart in the source; their conditions may differ. Read-outs that look alike come from different tables or passages of the source.

Assays:
[1] = system: serum growth hormone (GH); assay: Serum rat growth hormone (RIA) after subcutaneous octreotide injection; type: in vivo
[2] = system: serum insulin-like growth factor I (IGF-I); assay: Serum IGF-I (RIA after acid-methanol extraction) after subcutaneous octreotide injection; type: in vivo, rat
[3] = system: hypoxia-induced retinal neovascularization; assay: Neonatal rat retinopathy (ROP) model, alternating hypoxia/hyperoxia, histologic scoring of eyes; type: in vivo
Procedure: We evaluated its effect on retinal neovascularization in vivo, using a neonatal rat retinopathy model. Methods: We used, on alternating days, hypoxia (10% O2) and hyperoxia (50% O2) during the first 14 days of neonatal rats, to induce retinal neovascularization. […] At day 18 the eyes were evaluated for the presence of epiretinal and vitreal hemorrhage, neovascularization and epiretinal proliferation.
Int. Jnl. Experimental Diab. Res., Vol. 1, pp. 39-47 Reprints available directly from the publisher Photocopying permitted by license only (C) 2000 OPA (Overseas Publishers Association) N.V. Published by license under the Harwood Academic Publishers imprint, part of The Gordon and Breach Publishing Group. Printed in Malaysia. […] We evaluated its effect on retinal neo- vascularization in vivo, using a neonatal rat retino- pathy model. Methods: We used, on alternating days, hypoxia (10%O2) and hyperoxia (50%02) during the first 14 days of neonatal rats, to induce retinal neovascu- larization. […] At day 18 the eyes were evaluated for the presence of epiretinal and vitreal hemorrhage, neovasculariza- tion and epiretinal proliferation. […] Keywords: Retinopathy of prematurity, angiogenesis, insulin- like growth factor, growth hormone, neovascularization INTRODUCTION Retinal neovascularization is a common feature of several eye diseases characterized by retinal hypoxia, such as proliferative diabetic retino- pathy (PDR) and retinopathy of prematurity (ROP). While the underlying pathology may be different in these conditions, the neovascular pro- cess itself leads to destruction of normal retina and eventually causes blindness. *Corresponding author. Department of Ophthalmology, Hadassah University Hospital, P. O. Box 12000, Jerusalem 91120, Israel. Tel.: +972-2-677 6927, Fax: +972-2-643 4434, e-maih edward@md2.huji.ac.il 39 40 E. AVERBUKH et al. Growth hormone (GH) and insulin-like growth factor I (IGF-I) have been implicated in the pathogenesis of PDR (Lundbaek et al., 1970; Dills et al., 1991). […] High vitre- ous levels of IGF-I and IGF binding proteins (IGFBPs) were found in patients with neovas- cular eye disease related to diabetes and to other ischemic retinal conditions (Meyer-Schwickerath et al., 1993). In addition, a recent study demon- strated the essential role of GH and IGF-I in the development of retinal neovascularization in the ROP model in mice (Smith et al., 1997). Decades ago, before the advent of lasers, elimination of GH production by pituitary ablation was an accepted therapy for PDR (Bradley, Rees and Fager, 1965). […] METHODS Animals Fifty-six neonatal Sabra rats (provided by the Harlan Laboratories, Jerusalem, Israel) were divided into experimental groups of eight to ten animals from mixed litters, not divided ac- cording to gender. At the age of one day the group with the lactating mother were placed in an incubator with a controlled oxygen con- centration. […] All the animals were maintained and treated in ac- cordance with the Association for Research in Vision and Ophthalmology statement on the use of animals in ophthalmic and vision re- search. Retinal neovascularization was induced by alternating oxygen concentrations as pre- viously described (Reynaud and Dorey, 1994; Penn, Tolman and Lowery, 1993). Briefly, the animals were exposed on alternating days to hypoxia (10% O2-24h) and hyperoxia (50% O2-24h) during their first 14 days, followed by four days in room air. Hypoxia was produced by mixing air with nitrogen, and hyperoxia by mixing air with oxygen. A minimal flow of two liters per minute was maintained. […] At day 18 the rats were anesthetized with ether and sacrificed. The eyes were enu- cleated and placed in formaldehyde. […] These areas are prone to ischemia when the oxygen level is lowered.

[4] = parameters: method as in Bauer et al., 1982; conditions: ref Bauer et al., 1982; cited from earlier work
Description: Int. Jnl. Experimental Diab. Res., Vol. 1, pp. 39-47 Reprints available directly from the publisher Photocopying permitted by license only (C) 2000 OPA (Overseas Publishers Association) N.V. Published by license under the Harwood Academic Publishers imprint, part of The Gordon and Breach Publishing Group. Printed in Malaysia.

[5] = system: IGF-I mRNA, GH stimulated hepatocytes; conditions: ref Serri et al., 1992, cited from earlier work
Description: (§1) Int. Jnl. Experimental Diab. […] Printed in Malaysia.

[6] = system: human retinal endothelial cell (HREC); conditions: HREC stimulated by IGF-I and bFGF, ref Grant et al., 1993b, cited from earlier work
Description: as §1

[7] = Serum octreotide level (RIA) after subcutaneous injection in neonatal rats; conditions: Sabra, rat, sc
[8] = stated for both the octreotide-treated and the control groups

## C[C@@H](O)[C@@H]1NC(=O)[C@H](CCCCN)NC(=O)[C@@H](Cc2c[nH]c3ccccc23)NC(=O)[C@H](Cc2ccccc2)NC(=O)[C@@H](NC(=O)[C@H](N)Cc2ccccc2)CSSC[C@@H](C(=O)N[C@H](CO)[C@@H](C)O)NC1=O [octreotide]
[1]; 9 and 14 hours after injection
  Serum GH level vs control group: returned to baseline; also recorded: comparable
[1]; 2 hours after injection, p = 0.002
  Decrease of serum GH level compared with saline injected animals: 40%
[2]; 2 hours after injection
  Serum IGF-I level vs control group: unchanged; also recorded: similar
[2]; 9 hours after injection, p 0.06
  Elevation of serum IGF-I level vs control group: 19%
[2]; 14 hours after injection, p = 0.02
  Elevation of serum IGF-I level vs control group: 26%
[3]; 0.7 μg/g BW s.c. twice daily, Mann-Whitney Rank Sum Test vs saline
  Effect of injections on retinal pathology: no statistically significant effect
[3]; octreotide-treated eyes, day 18 (control 27%)
  Eyes in which NV was found: 35%
[3]; [8]
  Eyes affected by any of epiretinal and vitreal hemorrhages: ~70%
  Eyes affected by epiretinal or by vitreal hemorrhages, each one of them: approximately 45%
[3]; stated for each group
  Eyes affected by PVR: less than 40%
[3]; twice-daily injections, neonatal rat ROP model
  Retinal neovascularization: not inhibited
[4]
  Plasma half-life: 1.5 h
[5]; high concentrations of octreotide (30 and 300 μg/l)
  IGF-I mRNA abundance in cultured GH stimulated hepatocytes: no effect
[5]; low octreotide concentrations (0.3 and 3 μg/l)
  IGF-I mRNA levels in cultured GH stimulated hepatocytes: significantly reduced
[6]; octreotide level 1.6 μg/l
  Inhibition of [3H]thymidine incorporation: 15%
[6]; octreotide level 16 μg/l
  Inhibition of [3H]thymidine incorporation: 35%
[6]; octreotide level 164 μg/l
  Inhibition of [3H]thymidine incorporation: 60%
[7]; 0.7 μg/g BW
  half-life: 1.63 h
[7]; 20 ug
  level at 9 h: 26.4 ng/mL
  level at 14 h: 3.2 ng/mL
